In this assay the target is T1, recombinant human OSCAR-Fc chimera (Homo sapiens, UniProt Q8IYS5).
T1 construct: extracellular region of human OSCAR (Asp19-Asn229, NP_573399); purchased R&D Systems, Bio-Techne 9955-OS
T1 sequence (Q8IYS5 19-229 isoform Q8IYS5-2): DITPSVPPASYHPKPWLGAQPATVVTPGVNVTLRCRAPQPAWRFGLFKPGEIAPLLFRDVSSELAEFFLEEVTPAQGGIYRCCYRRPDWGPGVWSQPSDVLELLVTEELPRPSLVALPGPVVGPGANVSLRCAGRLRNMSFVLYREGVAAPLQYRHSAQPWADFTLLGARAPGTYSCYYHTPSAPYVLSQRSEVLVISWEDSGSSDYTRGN
Kind of assay: Surface plasmon resonance (SPR) analysis of the peptide-OSCAR interaction. The class given is binding. The conditions noted are these: immobilised human OSCAR-Fc, 25 °C, pH 7.4. The procedure:
Surface plasmon resonance (SPR) was used to determine the binding affinity between OP1_Hyp or OP1_Pro and a recombinant human OSCAR-Fc chimera made from the extracellular region of human OSCAR (Asp19-Asn229, NP_573399) and the Fc domain from human IgG1 (Pro100-Lys330, P01857-1). A kinetic analysis was performed with immobilised OSCAR-Fc, OP1_Hyp, and OP1_Pro as analytes. A Langmuir 1:1 model was used to perform the kinetic analysis. This model is based on a simple interaction between ligand and analytes where a 1:1 molar complex is formed at equilibrium, i.e., A + B ⇄ AB. The kinetics of the reaction are determined by the association and dissociation rate constants (ka and kd, respectively), with an overall affinity constant (KD) given by KD = kd/ka.
SPR analyses were carried out on a Biacore™ T200 (Cytiva) using a Series S CM5 sensor chip with an assay running buffer of 10 mM PBS, 150 mM NaCl, 0.05% Tween20, pH 7.4. Reference and active flow cells were activated by injecting 70 μL of a 1:1 mixture of 0.2 M 1-ethyl-3-(3-dimethylaminopropyl)-carbodiimide (EDC) and 0.1 M N-hydroxysuccinimide (NHS) at 10 µL/min. Recombinant human OSCAR-Fc chimera (R&D Systems, Bio-Techne, Minneapolis, MN, USA, 9955-OS) was immobilised onto the active flow cell at 20 µg/mL in 10 mM sodium acetate pH 5.0 at 10 µL/min to 6880 response units (RU). Reference and active flow cells were blocked using 1 M ethanolamine, pH 8, at a flow rate of 10 µL/min. For kinetic and equilibrium binding analysis, OP1_Hyp and OP1_Pro peptides were flowed at 25 °C active and reference flow cells at 30 µL/min in assay running buffer at peptide concentrations of 5000—0 nM (OP1_Hyp) and 40,000—0 nM (OP1_Pro), using a dilution series. Surfaces were regenerated with a 10 s injection of 0.1 M glycine, pH 2.0. Data sets were analysed with the built-in BiaEvaluation software (version 4.1). The models used for analysis were the Langmuir 1:1 binding model and the steady-state analysis model. Data are presented as the mean and standard error of the mean (SEM) of triplicate runs.
(In SPR one partner is held on a chip, and binding of the other changes the refractive index at the surface.)

The structures appear in SMILES notation. Where a SMILES comes first, the peptide text is derived from it. [ ]: non-standard residue; d: D form. Hyp = O=C(O)[C@@H]1C[C@@H](O)CN1

In the case of `CC(=O)NCC(=O)N1CCC[C@H]1C(=O)N1C[C@H](O)C[C@H]1C(=O)NCC(=O)N1CCC[C@H]1C(=O)N1C[C@H](O)C[C@H]1C(=O)NCC(=O)N1CCC[C@H]1C(=O)N1C[C@H](O)C[C@H]1C(=O)NCC(=O)N[C@@H](C)C(=O)N1C[C@H](O)C[C@H]1C(=O)NCC(=O)N1CCC[C@H]1C(=O)N[C@@H](C)C(=O)NCC(=O)N[C@@H](Cc1ccccc1)C(=O)N[C@@H](C)C(=O)NCC(=O)N1CCC[C@H]1C(=O)N1C[C@H](O)C[C@H]1C(=O)NCC(=O)N1CCC[C@H]1C(=O)N1C[C@H](O)C[C@H]1C(=O)NCC(=O)N1CCC[C@H]1C(=O)N1C[C@H](O)C[C@H]1C(N)=O` [OP1_Hyp] (Ac-GP[Hyp]GP[Hyp]GP[Hyp]GA[Hyp]GPAGFAGP[Hyp]GP[Hyp]GP[Hyp]-NH2), the “Association/dissociation behaviour in sensorgrams” value is “a progressive binding phase to OSCAR with a slow release at all the concentrations tested”.
